The values below come from patent publication US20100002929A1, “Image-based methods for measuring global nuclear patterns as epigenetic markers of cell differentiation” (The Charles Stark Draper Laboratory, Inc., priority 2004, published 2010).

One assay deals with Oct4 promoter. The note with it: combined TSA and 5Aza 2′ deoxycytidine treatment of TE; cited from earlier work.
The next assay relates to hESC. As to the kind of experiment: Chromatin mobility by time-lapse confocal microscopy of GFP-H2B transfected hESC. The format is cell-based, human. The settings on record: hESC transfected with GFP-H2B; data not shown. On the procedure: Chromatin movement was further analyzed in hESC transfected with the fluorescent histone GFP-H2B (FIG. 4). Single confocal slices at 0.4 μm spacing (FIG. 4A) show density variations, including low-density voids (arrow in FIG. 4A, 0.4 μm). The movement of cell-specific bright chromatin densities was analyzed by overlaying images at 0, 5 and 10 min, assigned to the blue, green and red channels respectively (FIGS. 4B-F) and by vector analysis where movement of bright spots was traced with a yellow line at 1 min intervals and red arrows were placed at the last position of the spot (FIG. 4G). Different kinds of nuclear movement were detected including internal mixing of chromatin, indicated by movement of bright chromatin domains without envelope deformation (pluripotent hESC, FIG. 4B), deformation of the envelope and chromatin (pluripotent hESC, FIG. 4C), and multidirectional streaming of chromatin (2 day differentiated hESC, FIG. 4D). Long-range coordination of chromatin movement was infrequent in hESC and prevalent, albeit at slower speeds, in differentiated cells. An increase in coherence length was most noticeable in 5-week differentiated hESC (FIG. 4E). In contrast, endothelial cells show small amplitude, sub-em tethered stochastic movement (FIG. 4F) as reported previously for somatic cells (Marshall, Straight et al. 1997). […]

A further assay has as its system HDAC1. The assay is described as follows: HDAC1 immunostaining (confocal microscopy) in HeLa cells. The note with it: FIG. 15.

With `Nc1ncn([C@H]2C[C@H](O)[C@@H](CO)O2)c(=O)n1` [5Aza 2′ deoxycytidine], in the assay on Oct4 promoter, the Oct4 expression result is given as “induces Oct4 expression” and the Oct4 promoter methylation result is recorded as “hypomethylates the Oct4 promoter”. Turning to `C=C1[C@@H](C)[C@H]2[C@H](Cc3ccccc3)NC(=O)[C@]23[C@H](OC(C)=O)/C=C/[C@@](C)(O)C(=O)[C@@H](C)C/C=C/[C@H]3[C@@H]1O` [cytochalasin D], in the assay on hESC, the “effect on chromatin mobility” value is reported as “slight acceleration of chromatin mobility”. As to `COC(=O)Nc1nc2ccc(C(=O)c3cccs3)cc2[nH]1` [nocodazole], the “effect on chromatin mobility” value in the assay on hESC is given as “no effect on chromatin mobility”. Consider `CC(/C=C/C(=O)NO)=C\[C@@H](C)C(=O)c1ccc(N(C)C)cc1` [TSA], for which, in the assay on Oct4 promoter, the Oct4 expression entry is on record as “induces Oct4 expression” and the Oct4 promoter methylation entry was “hypomethylates the Oct4 promoter”. Moreover, the HDAC1 staining result in the assay on HDAC1 was “complete absence of HDAC1 staining”.
